How the values were obtained:
[1] = biological target: KRAS-G12V/RAF1 (Homo sapiens (Human), UniProt P01116, G12V); experiment: KRAS/RAF1 binding inhibition assay (AlphaScreen)
Procedure, shortened: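 Binding of GppNHp-loaded KRAS G12V to the RAF1 RBD was measured by AlphaScreen with test compound present in 2% DMSO (final), 60 min incubation at 4° C. Signals were converted to % inhibition versus DMSO, and IC50 was obtained by variable-slope nonlinear regression.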

[2] = biological target: KRAS G12V (Homo sapiens (Human), UniProt P01116, G12V); experiment: KRAS G12V degradation in SW620 cells (Western blot, DC50); assay type: cell-based; conditions: 24 hours
KRAS G12V, sequence (P01116-2 other isoform, or with tags, fused parts or gaps G12V): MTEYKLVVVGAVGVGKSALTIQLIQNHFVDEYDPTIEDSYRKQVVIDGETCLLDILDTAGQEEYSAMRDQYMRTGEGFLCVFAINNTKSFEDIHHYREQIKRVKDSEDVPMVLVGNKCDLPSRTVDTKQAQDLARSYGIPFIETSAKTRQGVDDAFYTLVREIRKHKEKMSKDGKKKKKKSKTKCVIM
Procedure, shortened: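 SW620 cells (homozygous KRAS G12V) were treated with compound for 24 hours at 37° C. KRAS in lysates was measured by Western blot with fluorescent secondary antibodies and expressed relative to DMSO vehicle (100%). DC50 came from a four-parameter variable-slope dose-response fit.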

[3] = test system: SW620 cells; experiment: 3D cell growth inhibition of SW620 cells carrying endogenous KRAS G12V mutation (CellTiter-Glo 3D, GI50); assay type: cell-based; conditions: Homo sapiens, SW-620, 144 h; SW620 cells, 6 days; read-out: SW620 3D cell growth GI50
Procedure, shortened: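 SW620 cells (endogenous KRAS G12V) grown in 3D were dosed next day with compound from DMSO stocks at various concentrations, then incubated 6 days at 37° C.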

KRAS-G12V/RAF1, sequence (P01116-2 other isoform, or with tags, fused parts or gaps G12V): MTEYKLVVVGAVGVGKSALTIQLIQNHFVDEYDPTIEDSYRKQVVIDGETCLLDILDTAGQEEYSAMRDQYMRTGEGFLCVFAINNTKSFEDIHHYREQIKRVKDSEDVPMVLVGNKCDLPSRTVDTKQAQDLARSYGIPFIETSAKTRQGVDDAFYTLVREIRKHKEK

CCc1cccc2cc(O)cc(-c3ncc4c(N(C)C5CC5)nc(OCC5(CN6CCC(CN7CCN(c8ccc9c(c8)CN([C@H]8CCC(=O)NC8=O)C9=O)CC7)CC6)CC5)nc4c3F)c12 [Compound 15, (S)-3-(5-(4-((1-((1-(((4-(cyclopropyl(methyl)amino)-7-(8-ethyl-3-hydroxynaphthalen-1-yl)-8-fluoropyrido[4,3-d]pyrimidin-2-yl)oxy)methyl)cyclopropyl)methyl)piperidin-4-yl)methyl)piperazin-1-yl)-1-oxoisoindolin-2-yl)piperidine-2,6-dione]
IC50 [1]: > 200 nM | DC50 [2]: > 100 nM | GI50 [3]: > 100 nM

CCc1cccc2cc(O)cc(-c3ncc4c(N5CCC[C@@](C)(O)C5)nc(OCC5(CN6CC7(CCN(c8ccc9c(c8)CN(C8CCC(=O)NC8=O)C9=O)CC7)C6)CC5)nc4c3F)c12 (stereo partly drawn) [Compound 16, 3-(5-(2-((1-(((7-(8-ethyl-3-hydroxynaphthalen-1-yl)-8-fluoro-4-((R)-3-hydroxy-3-methylpiperidin-1-yl)pyrido[4,3-d]pyrimidin-2-yl)oxy)methyl)cyclopropyl)methyl)-2,7-diazaspiro[3.5]nonan-7-yl)-1-oxoisoindolin-2-yl)piperidine-2,6-dione]
IC50 [1]: 20 to 200 nM | DC50 [2]: > 100 nM | GI50 [3]: > 100 nM

CCc1cccc2cc(O)cc(-c3ncc4c(N5CCC[C@@](C)(O)C5)nc(OCC5(CN6CC(CN7CC8(CCN(c9ccc%10c(c9)CN(C9CCC(=O)NC9=O)C%10=O)CC8)C7)C6)CC5)nc4c3F)c12 (stereo partly drawn) [Compound 17, 3-(5-(2-((1-((1-(((7-(8-ethyl-3-hydroxynaphthalen-1-yl)-8-fluoro-4-((R)-3-hydroxy-3-methylpiperidin-1-yl)pyrido[4,3-d]pyrimidin-2-yl)oxy)methyl)cyclopropyl)methyl)azetidin-3-yl)methyl)-2,7-diazaspiro[3.5]nonan-7-yl)-1-oxoisoindolin-2-yl)piperidine-2,6-dione]
IC50 [1]: 20 to 200 nM | DC50 [2]: > 100 nM | GI50 [3]: > 100 nM

CCc1cccc2cc(O)cc(-c3ncc4c(N5CCC[C@@](C)(O)C5)nc(OCC5(CN6CC[C@@H](CN7CC8(CCN(c9ccc%10c(c9)CN(C9CCC(=O)NC9=O)C%10=O)CC8)C7)C6)CC5)nc4c3F)c12 (stereo partly drawn) [Compound 18, 3-(5-(2-(((R)-1-((1-(((7-(8-ethyl-3-hydroxynaphthalen-1-yl)-8-fluoro-4-((R)-3-hydroxy-3-methylpiperidin-1-yl)pyrido[4,3-d]pyrimidin-2-yl)oxy)methyl)cyclopropyl)methyl)pyrrolidin-3-yl)methyl)-2,7-diazaspiro[3.5]nonan-7-yl)-1-oxoisoindolin-2-yl)piperidine-2,6-dione]
IC50 [1]: < 20 nM | DC50 [2]: > 100 nM | GI50 [3]: 10 to 100 nM

CCc1cccc2cc(O)cc(-c3ncc4c(N5CCC[C@@](C)(O)C5)nc(OCC5(CN6CCC(CN7CC8(CCN(c9ccc%10c(c9)CN(C9CCC(=O)NC9=O)C%10=O)CC8)C7)CC6)CC5)nc4c3F)c12 (stereo partly drawn) [Compound 19, 3-(5-(2-((1-((1-(((7-(8-ethyl-3-hydroxynaphthalen-1-yl)-8-fluoro-4-((R)-3-hydroxy-3-methylpiperidin-1-yl)pyrido[4,3-d]pyrimidin-2-yl)oxy)methyl)cyclopropyl)methyl)piperidin-4-yl)methyl)-2,7-diazaspiro[3.5]nonan-7-yl)-1-oxoisoindolin-2-yl)piperidine-2,6-dione]
IC50 [1]: 20 to 200 nM | DC50 [2]: 1 to 10 nM | GI50 [3]: 10 to 100 nM

CCc1c(F)ccc2cc(O)cc(-c3ncc4c(N5CCC[C@@](C)(O)C5)nc(OCC5(CN6CCC(C#N)(CN7CCN(c8ccc9c(c8)CN([C@H]8CCC(=O)NC8=O)C9=O)CC7)CC6)CC5)nc4c3F)c12 [Compound 20, 4-((4-(2-((S)-2,6-dioxopiperidin-3-yl)-1-oxoisoindolin-5-yl)piperazin-1-yl)methyl)-1-((1-(((7-(8-ethyl-7-fluoro-3-hydroxynaphthalen-1-yl)-8-fluoro-4-((R)-3-hydroxy-3-methylpiperidin-1-yl)pyrido[4,3-d]pyrimidin-2-yl)oxy)methyl)cyclopropyl)methyl)piperidine-4-carbonitrile]
IC50 [1]: > 200 nM | DC50 [2]: > 100 nM | GI50 [3]: < 10 nM

CCc1cccc2cc(O)cc(-c3ncc4c(N5CCC[C@@](C)(O)C5)nc(OCC5(CN6CC[C@H](CN7CC8(CCN(c9ccc%10c(c9)CN(C9CCC(=O)NC9=O)C%10=O)CC8)C7)C6)CC5)nc4c3F)c12 (stereo partly drawn) [Compound 22, 3-(5-(2-(((S)-1-((1-(((7-(8-ethyl-3-hydroxynaphthalen-1-yl)-8-fluoro-4-((R)-3-hydroxy-3-methylpiperidin-1-yl)pyrido[4,3-d]pyrimidin-2-yl)oxy)methyl)cyclopropyl)methyl)pyrrolidin-3-yl)methyl)-2,7-diazaspiro[3.5]nonan-7-yl)-1-oxoisoindolin-2-yl)piperidine-2,6-dione]
IC50 [1]: < 20 nM | DC50 [2]: > 100 nM | GI50 [3]: 10 to 100 nM

CCc1cccc2cc(O)cc(-c3ncc4c(N5CCC[C@@](C)(O)C5)nc(OCC5(CN6CCC(OC7CCN(c8ccc9c(c8)CN(C8CCC(=O)NC8=O)C9=O)CC7)CC6)CC5)nc4c3F)c12 (stereo partly drawn) [Compound 24, 3-(5-(4-((1-((1-(((7-(8-ethyl-3-hydroxynaphthalen-1-yl)-8-fluoro-4-((R)-3-hydroxy-3-methylpiperidin-1-yl)pyrido[4,3-d]pyrimidin-2-yl)oxy)methyl)cyclopropyl)methyl)piperidin-4-yl)oxy)piperidin-1-yl)-1-oxoisoindolin-2-yl)piperidine-2,6-dione]
IC50 [1]: 20 to 200 nM | DC50 [2]: < 1 nM | GI50 [3]: < 10 nM

Cc1nc(N)cc(-c2ncc3c(N4CCC[C@@](C)(O)C4)nc(OCC4(CN5CCC6(CC5)CC(CN5CCN(c7ccc8c(c7)CN([C@H]7CCC(=O)NC7=O)C8=O)CC5)C6)CC4)nc3c2F)c1C(F)(F)F [Compound 26, (S)-3-(5-(4-((7-((1-(((7-(6-amino-2-methyl-3-(trifluoromethyl)pyridin-4-yl)-8-fluoro-4-((R)-3-hydroxy-3-methylpiperidin-1-yl)pyrido[4,3-d]pyrimidin-2-yl)oxy)methyl)cyclopropyl)methyl)-7-azaspiro[3.5]nonan-2-yl)methyl)piperazin-1-yl)-1-oxoisoindolin-2-yl)piperidine-2,6-dione]
IC50 [1]: > 200 nM | DC50 [2]: > 100 nM | GI50 [3]: > 100 nM

CCc1cccc2cc(O)cc(-c3ncc4c(N(C)[C@@H]5C[C@H]5F)nc(OCC5(CN6CCC7(CC6)CC(CN6CCN(c8ccc9c(c8)CN([C@H]8CCC(=O)NC8=O)C9=O)CC6)C7)CC5)nc4c3F)c12 [Compound 27, (S)-3-(5-(4-((7-((1-(((7-(8-ethyl-3-hydroxynaphthalen-1-yl)-8-fluoro-4-(((1R,2R)-2-fluorocyclopropyl)(methyl)amino)pyrido[4,3-d]pyrimidin-2-yl)oxy)methyl)cyclopropyl)methyl)-7-azaspiro[3.5]nonan-2-yl)methyl)piperazin-1-yl)-1-oxoisoindolin-2-yl)piperidine-2,6-dione]
IC50 [1]: > 200 nM | DC50 [2]: 1 to 10 nM | GI50 [3]: 10 to 100 nM

CCc1cccc2cc(O)cc(-c3ncc4c(N5CCC[C@@](C)(O)C5)nc(OCC5(CN6CCC(N7CC8(CCN(c9ccc%10c(c9)CN([C@H]9CCC(=O)NC9=O)C%10=O)CC8)C7)CC6)CC5)nc4c3F)c12 [Compound 30, (S)-3-(5-(2-(1-((1-(((7-(8-ethyl-3-hydroxynaphthalen-1-yl)-8-fluoro-4-((R)-3-hydroxy-3-methylpiperidin-1-yl)pyrido[4,3-d]pyrimidin-2-yl)oxy)methyl)cyclopropyl)methyl)piperidin-4-yl)-2,7-diazaspiro[3.5]nonan-7-yl)-1-oxoisoindolin-2-yl)piperidine-2,6-dione]
IC50 [1]: < 20 nM | DC50 [2]: 1 to 10 nM | GI50 [3]: < 10 nM

CCc1cccc2cc(O)cc(-c3ncc4c(N5CCC[C@@](C)(O)C5)nc(OCC5(CN6CCC7(CC6)CC(N6CCN(c8ccc9c(c8)C(=O)N(C8CCC(=O)NC8=O)C9=O)CC6)C7)CC5)nc4c3F)c12 (stereo partly drawn) [Compound 31, 2-(2,6-dioxopiperidin-3-yl)-5-(4-(7-((1-(((7-(8-ethyl-3-hydroxynaphthalen-1-yl)-8-fluoro-4-((R)-3-hydroxy-3-methylpiperidin-1-yl)pyrido[4,3-d]pyrimidin-2-yl)oxy)methyl)cyclopropyl)methyl)-7-azaspiro[3.5]nonan-2-yl)piperazin-1-yl)isoindoline-1,3-dione]
IC50 [1]: 20 to 200 nM | DC50 [2]: 1 to 10 nM | GI50 [3]: < 10 nM

CCc1cccc2cc(O)cc(-c3ncc4c(N5CCC[C@@](C)(O)C5)nc(OCC5(CN6CCC7(CC6)CC(CN6CCN(c8ccc9c(c8)C(=O)N(C8CCC(=O)NC8=O)C9=O)CC6)C7)CC5)nc4c3F)c12 (stereo partly drawn) [Compound 32, 2-(2,6-dioxopiperidin-3-yl)-5-(4-((7-((1-(((7-(8-ethyl-3-hydroxynaphthalen-1-yl)-8-fluoro-4-((R)-3-hydroxy-3-methylpiperidin-1-yl)pyrido[4,3-d]pyrimidin-2-yl)oxy)methyl)cyclopropyl)methyl)-7-azaspiro[3.5]nonan-2-yl)methyl)piperazin-1-yl)isoindoline-1,3-dione]
IC50 [1]: 20 to 200 nM | DC50 [2]: 1 to 10 nM | GI50 [3]: < 10 nM

CCc1c(F)ccc2cc(O)cc(-c3ncc4c(N5CCC[C@@](C)(O)C5)nc(OCC5(CN6CCC(OC7CCN(C8CCN(c9ccc%10c(c9)CN(C9CCC(=O)NC9=O)C%10=O)CC8)CC7)CC6)CC5)nc4c3F)c12 (stereo partly drawn) [Compound 43, 3-(5-(4-((1-((1-(((7-(8-ethyl-7-fluoro-3-hydroxynaphthalen-1-yl)-8-fluoro-4-((R)-3-hydroxy-3-methylpiperidin-1-yl)pyrido[4,3-d]pyrimidin-2-yl)oxy)methyl)cyclopropyl)methyl)piperidin-4-yl)oxy)-[1,4′-bipiperidin]-1′-yl)-1-oxoisoindolin-2-yl)piperidine-2,6-dione]
IC50 [1]: < 20 nM | DC50 [2]: < 1 nM | GI50 [3]: < 10 nM
